Measurements published in publication PMC5399635 (The Journal of Pharmacology and Experimental Therapeutics, 2017).
Where “and” joins values, the source holds several entries; their conditions need not be identical. Identical values can stand only once. Like-named read-outs stand apart in the source and are kept apart here.

Key:
[1] = test system: morphine-induced inhibition of gastrointestinal transit; test: Gastrointestinal transit model (charcoal meal), antagonism of morphine
human µ-opioid receptor = human µ-opioid receptor (Homo sapiens, UniProt P35372); test: [35S]GTPγS binding, Schild-type antagonism of morphine (CHO-K1 membranes); details: versus morphine; pooled 3 experiments
other transporters = test system: other transporters; parameters: method as in earlier work; details: ref 2013 AstraZeneca unpublished data; cited from earlier work
[2] = test system: panel of more than 300 receptors, ion channels, transporters, and enzymes; test: Binding screen across a panel of more than 300 targets; details: 10 µM; apart from opioid receptors; data not shown
human κ-opioid receptor = biological target: T1, human κ-opioid receptor (Homo sapiens, UniProt P41145); test: [35S]GTPγS functional assay, κ-opioid receptor (HEK-293 membranes); type: biochemical
T1 construct: expressed in transfected cells; host or cells: HEK-293 cells
Description: (§1) These were single experiments conducted across a range of 12 half-log concentrations, from […], with 1 replicate per concentration; experimental conditions were as described for [^35S]GTPγS binding experiments with human recombinant µ-opioid receptors. Functional activity at κ-opioid receptors was also determined in an isolated tissue preparation from the rabbit vas deferens, using methods detailed previously ([Oka et al., 1981]).

[3] = test system: morphine-induced antinociception; test: Hot plate model of nociception, antagonism of morphine; details: Rattus norvegicus, po, read-out: ED50, antagonism of morphine analgesia
[4] = In situ rat brain perfusion model; details: 30 s perfusion, test compound 20 μM, atenolol 50 μM, antipyrine 5 μM, mean ± S.D.
[5] = test system: opioid-induced constipation; parameters: method as in Chey et al., 2014; details: two trials, ref Chey et al., 2014, cited from earlier work
in vitro = details: human; for Papp A→B at 2 h, 10 μM: Caco-2, pH 7.4, Papp A→B; for Papp B→A at 2 h, 10 μM: Caco-2, pH 7.4, Papp B→A
rat κ-opioid receptor = biological target: T2, rat κ-opioid receptor (Rattus norvegicus, UniProt P34975); test: Radioligand binding, κ-opioid receptor ([3H]U69593)
T2 construct: expressed in transfected cells; host or cells: CHO cells
Description: Competitive inhibition studies were performed on cloned opioid receptors expressed in membranes of Chinese hamster ovary (CHO) cells and conducted in triplicate (n = 3 independent experiments).
Radioligand binding assays were performed to evaluate the ability of these agents to inhibit specific radioligand binding to cloned opioid receptor subtypes. Half-maximal inhibitory concentration (IC50), equilibrium dissociation constant for the inhibitor (Ki), and negative log of the equilibrium dissociation constant for the inhibitor (pKi) values were obtained. The receptor binding methods used for µ ([Zhang et al., 1998])-, δ ([Simonin et al., 1994])-, and κ ([Meng et al., 1993])-opioid receptors have been described previously, with the exception that 100 mM NaCl was added to the incubation buffer in the µ-opioid receptor binding assay. All assays were conducted in 200-µl volume. All assay incubations were terminated by filtration, and bound radioligand was quantitated by liquid scintillation spectrometry. The IC50 values were determined by nonlinear regression analysis of the competition curves generated with the mean of duplicate values using Hill equation curve fitting. The inhibition constants (Ki) were calculated using the Cheng-Prusoff equation. The pKi results from three independent experiments were analyzed for significant differences by one-way analysis of variance (ANOVA) followed by Bonferroni multiple comparison test.

κ-opioid receptors = biological target: T3, κ-opioid receptors (Oryctolagus cuniculus, UniProt G1SJ19); test: Isolated field-stimulated rabbit vas deferens assay; details: concentrations up to 10 µM
T3 construct: isolated tissue preparation from the rabbit vas deferens; from tissue; host or cells: rabbit vas deferens
Description: as §1

[6] = no P-gp inhibitor, mean of 3 experiments

T2 sequence (P34975 whole entry): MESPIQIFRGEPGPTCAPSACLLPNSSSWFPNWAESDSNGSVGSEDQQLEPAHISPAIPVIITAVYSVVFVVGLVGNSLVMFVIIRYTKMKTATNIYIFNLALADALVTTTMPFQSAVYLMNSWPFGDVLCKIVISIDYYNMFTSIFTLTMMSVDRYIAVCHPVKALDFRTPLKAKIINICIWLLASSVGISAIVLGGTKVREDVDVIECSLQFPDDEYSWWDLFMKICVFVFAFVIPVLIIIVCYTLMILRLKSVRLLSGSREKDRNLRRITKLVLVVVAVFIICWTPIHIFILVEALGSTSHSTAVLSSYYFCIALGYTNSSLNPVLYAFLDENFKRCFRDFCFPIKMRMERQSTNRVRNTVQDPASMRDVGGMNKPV
T1 sequence (P41145 whole entry): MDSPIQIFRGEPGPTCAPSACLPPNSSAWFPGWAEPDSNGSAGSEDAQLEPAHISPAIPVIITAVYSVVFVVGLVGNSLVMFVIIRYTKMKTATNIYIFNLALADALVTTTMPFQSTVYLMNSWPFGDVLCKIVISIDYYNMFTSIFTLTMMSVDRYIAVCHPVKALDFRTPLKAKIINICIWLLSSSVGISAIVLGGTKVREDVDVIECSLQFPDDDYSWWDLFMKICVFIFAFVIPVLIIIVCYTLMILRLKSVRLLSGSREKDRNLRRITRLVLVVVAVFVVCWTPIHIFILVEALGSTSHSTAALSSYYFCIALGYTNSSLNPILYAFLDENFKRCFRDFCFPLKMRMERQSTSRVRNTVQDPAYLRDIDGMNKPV
human µ-opioid receptor, sequence (P35372 whole entry): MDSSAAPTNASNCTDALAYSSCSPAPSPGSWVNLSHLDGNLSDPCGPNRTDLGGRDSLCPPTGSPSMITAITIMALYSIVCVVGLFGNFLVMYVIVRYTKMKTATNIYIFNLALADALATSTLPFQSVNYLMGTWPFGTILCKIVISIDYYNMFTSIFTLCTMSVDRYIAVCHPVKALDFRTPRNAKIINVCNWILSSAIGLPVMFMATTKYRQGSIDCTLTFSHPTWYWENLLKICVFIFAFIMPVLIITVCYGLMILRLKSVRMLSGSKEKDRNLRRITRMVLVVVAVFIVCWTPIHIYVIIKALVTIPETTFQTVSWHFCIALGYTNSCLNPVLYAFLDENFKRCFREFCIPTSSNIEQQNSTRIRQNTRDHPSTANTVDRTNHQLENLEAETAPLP
T3 sequence (G1SJ19 1-383): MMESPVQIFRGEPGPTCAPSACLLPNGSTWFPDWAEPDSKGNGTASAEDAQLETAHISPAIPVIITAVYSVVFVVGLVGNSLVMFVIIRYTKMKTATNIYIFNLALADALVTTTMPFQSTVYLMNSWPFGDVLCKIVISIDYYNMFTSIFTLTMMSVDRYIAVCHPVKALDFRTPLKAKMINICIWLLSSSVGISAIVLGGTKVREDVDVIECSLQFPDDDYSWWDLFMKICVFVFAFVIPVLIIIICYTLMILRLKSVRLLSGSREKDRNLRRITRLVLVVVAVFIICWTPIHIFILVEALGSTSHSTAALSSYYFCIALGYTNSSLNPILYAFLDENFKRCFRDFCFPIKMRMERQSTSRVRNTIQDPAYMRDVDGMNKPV

C=CCN1CC[C@]23c4c5ccc(O)c4O[C@H]2[C@@H](OCCOCCOCCOCCOCCOCCOCCOC)CC[C@@]3(O)[C@H]1C5 [Naloxegol, naloxegol]
oral dose that completely reversed the effect of morphine ([1]; GI transit assay, rat): 90 mg/kg
ED50 ([1]; Rattus norvegicus, read-out: ED50, antagonism of morphine in GI transit): 23.1 mg/kg
times less potent than naloxone ([1]; comparison of ED50 values): approximately 33 fold
separation in PNS versus CNS effect ([1]; rat, GI transit versus hot plate): twofold
Schild slope (human µ-opioid receptor): –1.03
substrate status for other transporters (other transporters): not a substrate of other transporters
inhibition of binding across panel [2]: ≤ 30%
IC50 (human κ-opioid receptor; U69593 100 nM, read-out: IC50 (inhibition of response to U69593)): 37 nM
inhibition at 100 µM (human κ-opioid receptor; at 100 µM, read-out: maximal inhibition of response to U69593): 62%
EC50 (human κ-opioid receptor; read-out: EC50 (agonism)): 47 nM
Emax (human κ-opioid receptor; read-out: maximal effect, agonism relative to U69593): 39%
ED50 [3]: 55.4 mg/kg
Brain Uptake [4]: 4.1 ± 1.4 pmol/g brain/s
12-week response rate versus placebo ([5]; 12.5 mg once daily): significantly higher than with placebo in only one trial
12-week response rate versus placebo ([5]; 25 mg once daily): Significantly more patients responded
Papp A→B at 2 h, 10 μM (in vitro; Cyclosporin A): 1.8 ×10⁻⁶ cm/s
Papp A→B at 2 h, 10 μM (in vitro; Elacridar, 0.5 μM): 2.3 ×10⁻⁶ cm/s
Papp A→B at 2 h, 10 μM (in vitro; Verapamil, 100 μM): 1.3 ×10⁻⁶ cm/s
Papp A→B at 2 h, 10 μM (in vitro; [6]): 0.7 ×10⁻⁶ cm/s
Papp B→A at 2 h, 10 μM (in vitro; Cyclosporin A): 1.8 ×10⁻⁶ cm/s
Papp B→A at 2 h, 10 μM (in vitro; Elacridar, 0.5 μM): 2.5 ×10⁻⁶ cm/s
Papp B→A at 2 h, 10 μM (in vitro; Verapamil, 100 μM): 1.7 ×10⁻⁶ cm/s
Papp B→A at 2 h, 10 μM (in vitro; [6]): 8.4 ×10⁻⁶ cm/s
Ki (rat κ-opioid receptor; cloned rat κ-opioid receptors, read-out: geometric mean Ki): 8.65 nM and 8.6 nM
Ki (rat κ-opioid receptor; no measure named, read-out: κ-opioid receptor value expressed as plasma concentration (Fig. 5) (converted)): 8.59 nM
agonist activity at κ-opioid receptors (κ-opioid receptors): no agonist activity
